In patent US12173088B2, “Anti-microbial peptides” (priority 2018, dated 2024):
≈ marks a conversion by molar mass, not a printed value. Read-outs that look alike come from different tables or passages of the source. Peptide text beside a SMILES is read from it.

Columns and labels:
P. aeruginosa PAO1 = type: cell-based, Pseudomonas aeruginosa
Procedure: (§1) The antibacterial activity of peptides was evaluated using a standard broth microdilution protocol with minor modifications as described (Mishra, et al. (2012) J. Am. Chem. Soc., 134:12426-12429). In brief, logarithmic phase bacterial cultures (i.e., optical density at 600 nm≈0.5) were diluted to OD600 0.001 and partitioned into a 96-well polystyrene microplate at 90 μL per well. After treatment with 10 μL of peptide solutions two fold diluted to various concentrations, microplates were incubated at 37° C. overnight and read on a ChroMate® 4300 Microplate Reader at 630 nm (GMI, Ramsey, MN). […] To study the influence of medium conditions on the antimicrobial activity of peptides against S. aureus USA300, up to 200 mM sodium chloride (NaCl), 2 mM of calcium chloride, 5-10% of human serum, mouse plasma, fluid, or supernatants of tissue homogenates were included into the assays.
(§2) The bacterial strains used include the Gram-positive bacteria methicillin-resistant Staphylococcus aureus USA300, Enterococcus faecium V286-17 (VRE), S. aureus M838-17 (MRSA) and Gram-negative bacteria E. coli E423-17, E416-7 (ampC), P. aeruginosa E411-17, PA01, K. pneumoniae E406-17, ATCC13883, and A. baumannii B26-16. Bacteria were cultivated in tryptic soy broth (TSB) from BD Bioscience.
(§3) The antibacterial activity of peptides was evaluated using a standard broth microdilution protocol with minor modifications (Mishra, et al. (2017) Acta Biomater., 49:316-328). In brief, logarithmic phase bacterial cultures (i.e., optical density at 600 nm≈0.5) were diluted to 0.001 OD and aliquoted 90 μL per well into a 96-well polystyrene microplate. Added 10 μL peptides per well with various concentrations, plates were incubated at 37° C., overnight. Post incubation the plates are read at 630 nm using a ChroMate® Microplate Reader (GMI). […] To study the influence of medium conditions on the antimicrobial activity of peptides against S. aureus USA300 at different pHs (6.8, 7.2, and 8.0), 150 mM sodium chloride (NaCl), 5-10% of human serum, mouse plasma, and peritoneal fluid were included into the assays.

S. aureus USA300 = assay: microbe, parasite or virus in culture; type: cell-based, Staphylococcus aureus
Text: The bacterial strains used include the Gram-positive strains Staphylococcus aureus USA300 LAC, S. epidermidis 1457, and Bacillus subtilis 168, as well as the Gram-negative isolates Escherichia coli K12 and Acinetobacter baumannii B2367-12. Additional, drug resistance strains include Gram-positive Enterococcus faecium V286-17 (VRE) and S. aureus M838-17 (MRSA) and Gram-negative E. coli E423-17, E. coli E416-17 (ampC), and P. aeruginosa E411-17. Bacteria were cultivated in tryptic soy broth (TSB) (BD Bioscience, MD).
as §1, §2, §3

[1] = test system: human red blood cells (hRBCs); assay: Hemolytic assay; type: cell-based
Procedure: Briefly, human red blood cells (hRBCs) were washed three times with phosphate buffer saline (PBS) and diluted to a 2% solution (v/v). After peptide treatment, incubation at 37° C. for one hour, and centrifugation at 5000 rpm for 10 minutes, aliquots of the supernatant were carefully transferred to a fresh 96-well microplate. The amount of hemoglobin released was measured at 545 nm. The percent lysis was calculated by assuming 100% release when human blood cells were treated with 2% Triton™ X-100, and 0% release when incubated with PBS buffer. The peptide concentration that caused 50% lysis of hRBCs is defined as HL50. The cell selectivity index (CSI) was calculated as the ratio between HL50 and MIC of the corresponding peptide against a select pathogenic species.
Hemolytic assays of peptides were performed as described (Mishra, et al. (2017) Acta Biomater., 49:316-328). Briefly, human red blood cells (hRBCs) obtained from UNMC Blood Bank. The blood washed 3× with isotonic saline (0.9% NaCl) and diluted to 2% blood cells (v/v). Peptide horine and verine at various concentrations were added into the 2% blood cells and incubated at 37° C. for 1 hour. Post incubation the plates were spun at 2000 rpm for 10 minutes, aliquots of the supernatant were carefully transferred to a fresh 96-well microplate. The amount of cells lysed is proportional to the hemoglobin released and measured at 545 nm using a ChroMate® microplate reader. The percent lysis was calculated by assuming 100% release when human blood cells were treated with 1% Triton™ X-100, and 0% release when incubated with PBS. The peptide concentration that caused 50% lysis of hRBCs is defined as HL50.

K. pneumoniae ATCC 13883 = type: cell-based, Klebsiella pneumoniae
Procedure: as §1, §2, §3

E. coli ATCC 25922 = type: cell-based, Escherichia coli
Procedure: as §1, §3

| SMILES | Activity against Pseudomonas aeruginosa PAO1 (P. aeruginosa PAO1) | MIC P. aeruginosa PAO1 (P. aeruginosa PAO1; PAO1) [µM] | MIC S. aureus USA 300 (S. aureus USA300; USA300) [µM] | HL50 [1] [µM] | MIC K. pneumoniae (K. pneumoniae ATCC 13883; ATCC 13883) [µM] | MIC E. coli ATCC 25922 (E. coli ATCC 25922; ATCC 25922) [µM] | MIC P. aeruginosa PAO1 (P. aeruginosa PAO1; Table 2, quantified by UV) [µM] | MIC S. aureus USA 300 (S. aureus USA300; Table 2, peptides amidated, quantified by UV) [µM] | HL50 ([1]; Table 2, lysis of 50% hRBCs (2% v/v)) [µM] | MIC K. pneumoniae (K. pneumoniae ATCC 13883; Table 2, quantified by UV) [µM] | MIC E. coli ATCC 25922 (E. coli ATCC 25922; Table 2, quantified by UV) [µM] | MIC K. pneumonia ATCC 13883 (K. pneumoniae ATCC 13883; ATCC 13883) [µM] |
| --- | --- | --- | --- | --- | --- | --- | --- | --- | --- | --- | --- | --- |
| CC(C)C[C@H](NC(=O)[C@H](CC(C)C)NC(=O)[C@H](CCCCN)NC(=O)CNC(=O)[C@H](CC(C)C)NC(=O)[C@H](CC(C)C)NC(=O)[C@H](CO)NC(=O)[C@H](CC(C)C)NC(=O)[C@H](CC(C)C)NC(=O)[C@H](CO)NC(=O)[C@H](CC(C)C)NC(=O)[C@H](C)NC(=O)CN)C(N)=O [DFT506, GALSLLSLLGKLL] (H-GALSLLSLLGKLL-NH2; N-terminus assumed) | active | 12.5 (≈ 16.2 µg/mL) | 0.78 (≈ 1.01 µg/mL) | 4 | 6.2 (≈ 8.04 µg/mL) | 3.1 (≈ 4.02 µg/mL) | – | – | – | – | – | – |
| CC(C)C[C@H](NC(=O)[C@H](CC(C)C)NC(=O)[C@H](CCCCN)NC(=O)CNC(=O)[C@H](CC(C)C)NC(=O)[C@H](CC(C)C)NC(=O)[C@H](CO)NC(=O)[C@H](CC(C)C)NC(=O)[C@H](CC(C)C)NC(=O)[C@H](CO)NC(=O)[C@H](C)NC(=O)[C@H](CC(C)C)NC(=O)CN)C(N)=O [DFT507, GLASLLSLLGKLL] (H-GLASLLSLLGKLL-NH2; N-terminus assumed) | – | >25 | 0.78 (≈ 1.01 µg/mL) | <3.1 | >25 | >25 | – | – | – | – | – | – |
| CC(C)C[C@H](NC(=O)[C@H](CC(C)C)NC(=O)[C@H](CCCCN)NC(=O)CNC(=O)[C@H](CC(C)C)NC(=O)[C@H](CC(C)C)NC(=O)[C@H](CO)NC(=O)[C@H](CC(C)C)NC(=O)[C@H](C)NC(=O)[C@H](CO)NC(=O)[C@H](CC(C)C)NC(=O)[C@H](CC(C)C)NC(=O)CN)C(N)=O [DFT508, GLLSALSLLGKLL] (H-GLLSALSLLGKLL-NH2; N-terminus assumed) | – | >25 | 0.78 (≈ 1.01 µg/mL) | 6 | 3.1 (≈ 4.02 µg/mL) | 3.1 (≈ 4.02 µg/mL) | – | – | – | – | – | – |
| CC(C)C[C@H](NC(=O)[C@H](CC(C)C)NC(=O)[C@H](CCCCN)NC(=O)CNC(=O)[C@H](CC(C)C)NC(=O)[C@H](CC(C)C)NC(=O)[C@H](CO)NC(=O)[C@H](C)NC(=O)[C@H](CC(C)C)NC(=O)[C@H](CO)NC(=O)[C@H](CC(C)C)NC(=O)[C@H](CC(C)C)NC(=O)CN)C(N)=O [DFT509, GLLSLASLLGKLL] (H-GLLSLASLLGKLL-NH2; N-terminus assumed) | – | 6.2 to 12.5 | 0.78 (≈ 1.01 µg/mL) | 4 | 3.1 (≈ 4.02 µg/mL) | 1.5 to 3.1 | – | – | – | – | – | – |
| CC(C)C[C@H](NC(=O)[C@H](CC(C)C)NC(=O)[C@H](CCCCN)NC(=O)CNC(=O)[C@H](CC(C)C)NC(=O)[C@H](C)NC(=O)[C@H](CO)NC(=O)[C@H](CC(C)C)NC(=O)[C@H](CC(C)C)NC(=O)[C@H](CO)NC(=O)[C@H](CC(C)C)NC(=O)[C@H](CC(C)C)NC(=O)CN)C(N)=O [DFT510, GLLSLLSALGKLL] (H-GLLSLLSALGKLL-NH2; N-terminus assumed) | – | >25 | 1.56 (≈ 2.02 µg/mL) | 19 | >25 | >25 | – | – | – | – | – | – |
| CC(C)C[C@H](NC(=O)[C@H](CC(C)C)NC(=O)[C@H](CCCCN)NC(=O)CNC(=O)[C@H](C)NC(=O)[C@H](CC(C)C)NC(=O)[C@H](CO)NC(=O)[C@H](CC(C)C)NC(=O)[C@H](CC(C)C)NC(=O)[C@H](CO)NC(=O)[C@H](CC(C)C)NC(=O)[C@H](CC(C)C)NC(=O)CN)C(N)=O [DFT511, GLLSLLSLAGKLL] (H-GLLSLLSLAGKLL-NH2; N-terminus assumed) | active | 12.5 (≈ 16.2 µg/mL) | 0.78 (≈ 1.01 µg/mL) | 14 | 3.1 (≈ 4.02 µg/mL) | 3.1 (≈ 4.02 µg/mL) | – | – | – | – | – | – |
| CC(C)C[C@H](NC(=O)[C@H](C)NC(=O)[C@H](CCCCN)NC(=O)CNC(=O)[C@H](CC(C)C)NC(=O)[C@H](CC(C)C)NC(=O)[C@H](CO)NC(=O)[C@H](CC(C)C)NC(=O)[C@H](CC(C)C)NC(=O)[C@H](CO)NC(=O)[C@H](CC(C)C)NC(=O)[C@H](CC(C)C)NC(=O)CN)C(N)=O [DFT512, GLLSLLSLLGKAL] (H-GLLSLLSLLGKAL-NH2; N-terminus assumed) | – | >25 | 0.78 (≈ 1.01 µg/mL) | 4 | 3.1 (≈ 4.02 µg/mL) | 3.1 (≈ 4.02 µg/mL) | – | – | – | – | – | – |
| CC(C)C[C@H](NC(=O)CN)C(=O)N[C@@H](CC(C)C)C(=O)N[C@@H](CO)C(=O)N[C@@H](CC(C)C)C(=O)N[C@@H](CC(C)C)C(=O)N[C@@H](CO)C(=O)N[C@@H](CC(C)C)C(=O)N[C@@H](CC(C)C)C(=O)NCC(=O)N[C@@H](CCCCN)C(=O)N[C@@H](CC(C)C)C(=O)N[C@@H](C)C(N)=O [DFT513, GLLSLLSLLGKLA] (H-GLLSLLSLLGKLA-NH2; N-terminus assumed) | – | – | – | – | – | – | >25 | 1.56 (≈ 2.02 µg/mL) | <3.1 | 12.5 to 25 | 1.5 to 3.1 | – |
| CC(C)C[C@H](NC(=O)[C@H](CC(C)C)NC(=O)[C@H](CCCCN)NC(=O)CNC(=O)[C@H](CC(C)C)NC(=O)[C@H](C)NC(=O)[C@H](CCCCN)NC(=O)[C@H](CC(C)C)NC(=O)[C@H](C)NC(=O)[C@H](CO)NC(=O)[C@H](CC(C)C)NC(=O)[C@H](CC(C)C)NC(=O)CN)C(N)=O [DFT514, GLLSALKALGKLL] (H-GLLSALKALGKLL-NH2; N-terminus assumed) | – | >25 | 1.56 (≈ 2.02 µg/mL) | 36 | 3.1 (≈ 4.02 µg/mL) | 3.1 (≈ 4.02 µg/mL) | – | – | – | – | – | – |
| CC[C@H](C)[C@H](NC(=O)[C@H](CCCNC(=N)N)NC(=O)[C@H](CCCNC(=N)N)NC(=O)[C@H](CCCNC(=N)N)NC(=O)[C@H](Cc1c[nH]c2ccccc12)NC(=O)[C@H](Cc1c[nH]c2ccccc12)NC(=O)[C@@H](N)Cc1c[nH]c2ccccc12)C(=O)N[C@@H](Cc1c[nH]c2ccccc12)C(N)=O [WW303, WWWRRRIW] (H-WWWRRRIW-NH2; N-terminus and C-terminus assumed) | – | 25 to 50 | – | >200 | – | – | – | – | – | – | – | >25 |
| CC[C@H](C)[C@H](NC(=O)[C@H](CCCNC(=N)N)NC(=O)[C@H](CCCNC(=N)N)NC(=O)[C@H](CC(C)C)NC(=O)[C@H](Cc1c[nH]c2ccccc12)NC(=O)[C@H](Cc1c[nH]c2ccccc12)NC(=O)[C@@H](N)Cc1c[nH]c2ccccc12)C(=O)N[C@@H](CCCNC(=N)N)C(N)=O [WW305, WWWLRRIR] (H-WWWLRRIR-NH2; N-terminus and C-terminus assumed) | – | 12.5 (≈ 15.9 µg/mL) | – | >200 | – | – | – | – | – | – | – | >25 |
